Measured values as given in the NIST ThermoML archive (doi:10.1016/j.fluid.2007.07.016).

Test: xn = mol fraction of the nth substance listed
Conditions: 101 kPa, Liquid; for viscosity: Capillary tube (Ostwald / Ubbelohde) method; for speed of sound: Linear variable-path acoustic interferometer

Cc1cccc(C)c1 [1,3-dimethylbenzene] + C1CCOC1
Conditions	speed of sound, 288.15 K [m/s]	speed of sound, 298.15 K [m/s]	speed of sound, 308.15 K [m/s]	speed of sound, 318.15 K [m/s]	viscosity, 288.15 K [mPa·s]	viscosity, 298.15 K [mPa·s]	viscosity, 308.15 K [mPa·s]	viscosity, 318.15 K [mPa·s]
x2 = 0	1373.2	1326.6	1281	1243	0.6696	0.588	0.5229	0.4684
x2 = 0.0722	1370.9	1324	1278.1	1239.4	0.6615	0.5823	0.5193	0.4668
x2 = 0.1486	1368.1	1321	1274.8	1235.5	0.6528	0.5762	0.5151	0.4647
x2 = 0.2134	1365.6	1318.4	1272.1	1232.2	0.6449	0.5703	0.511	0.4621
x2 = 0.2804	1362.9	1315.6	1269.2	1228.7	0.6363	0.5638	0.5061	0.4587
x2 = 0.3536	1359.7	1312.5	1265.9	1224.9	0.6263	0.556	0.4999	0.4542
x2 = 0.4255	1356.4	1309.3	1262.6	1221.1	0.616	0.5477	0.4932	0.4489
x2 = 0.4864	1353.5	1306.4	1259.7	1217.8	0.6068	0.5401	0.4869	0.4438
x2 = 0.5476	1350.5	1303.4	1256.6	1214.4	0.5971	0.5321	0.48	0.4382
x2 = 0.6041	1347.5	1300.5	1253.7	1211.1	0.5879	0.5243	0.4732	0.4323
x2 = 0.6751	1343.6	1296.7	1249.9	1206.9	0.5757	0.5139	0.464	0.4241
x2 = 0.7396	1339.8	1293.1	1246.4	1203.1	0.5642	0.5038	0.455	0.4162
x2 = 0.8005	1336.1	1289.6	1243	1199.5	0.5529	0.4939	0.446	0.408
x2 = 0.8722	1331.6	1285.4	1238.9	1195.1	0.5392	0.4817	0.4347	0.3974
x2 = 0.9378	1327.3	1281.4	1235.2	1191.1	0.5261	0.4699	0.4237	0.387

Cc1ccc(C)cc1 [1,4-dimethylbenzene] + C1CCOC1
Conditions	speed of sound, 288.15 K [m/s]	speed of sound, 298.15 K [m/s]	speed of sound, 308.15 K [m/s]	speed of sound, 318.15 K [m/s]	viscosity, 288.15 K [mPa·s]	viscosity, 298.15 K [mPa·s]	viscosity, 308.15 K [mPa·s]	viscosity, 318.15 K [mPa·s]
x2 = 0	1357.5	1316.4	1268	1230.3	0.7084	0.611	0.5501	0.4912
x2 = 0.084	1356	1314.1	1265.7	1227.2	0.6971	0.6047	0.5453	0.4891
x2 = 0.1716	1354.2	1311.7	1263.2	1224	0.6842	0.5954	0.5385	0.4849
x2 = 0.2322	1353.1	1310.1	1261.6	1221.9	0.6755	0.5895	0.5339	0.4819
x2 = 0.2934	1351.7	1308.3	1259.9	1219.6	0.6656	0.5825	0.528	0.4777
x2 = 0.3548	1350.2	1306.5	1258.1	1217.3	0.6552	0.5748	0.5214	0.4727
x2 = 0.4284	1348.1	1304	1255.7	1214.5	0.642	0.5648	0.5127	0.4658
x2 = 0.4896	1346.2	1301.8	1253.7	1212	0.6304	0.5558	0.5047	0.4592
x2 = 0.5518	1344.1	1299.4	1251.5	1209.3	0.6181	0.5461	0.4959	0.4518
x2 = 0.6201	1341.5	1296.6	1248.8	1206.2	0.6039	0.5347	0.4854	0.4428
x2 = 0.6825	1338.9	1293.7	1246.2	1203.3	0.5904	0.5237	0.4751	0.4337
x2 = 0.7414	1336.3	1290.9	1243.6	1200.4	0.5767	0.5127	0.4647	0.4245
x2 = 0.8102	1333.1	1287.6	1240.6	1197	0.5609	0.4991	0.4518	0.4128
x2 = 0.8756	1329.8	1284.3	1237.5	1193.7	0.545	0.4855	0.4388	0.4009
x2 = 0.9409	1326.4	1280.8	1234.4	1190.4	0.5284	0.4713	0.425	0.3881
